# From article PMC11375794, “Discovery of new Hsp90–Cdc37 protein–protein interaction inhibitors: in silico screening and optimization of anticancer activity” (RSC Advances, 2024)
# How the values were obtained:
# [1] = target: T1, full-length Hsp90β (Homo sapiens, UniProt P08238); experiment: Microscale thermophoresis (MST) binding to Hsp90β; conditions: full-length Hsp90β, absence of Cdc37
# T1 construct: For the protein expression of full-length Hsp90β, we received plasmids as a kind gift; made in house; host or cells: Escherichia coli strain Rosetta
# Description: For the protein expression of full-length Hsp90β, we received plasmids as a kind gift from Dr Asta Zubriené at the Institute of Biotechnology, Vilnius University, Lithuania. Hsp90β, tagged with N-terminal 6×His-tag, was expressed in Escherichia coli strain Rosetta. The cells were cultured in LB media supplemented with kanamycin (50 μg mL^−1) and chloramphenicol (34 μg mL^−1) at 37 °C, and protein expression was initiated with 0.5 mM isopropyl β-D-1-thiogalactopyranoside (IPTG) when the OD600 reached 0.8. Following induction, the cells were incubated for 16 hours at 18 °C before being harvested by centrifugation. The cells were resuspended in a lysis buffer containing 40 mM potassium phosphate pH 8.0, 400 mM KCl, 10 mM imidazole, and protease inhibitors (Sigma), and then lysed by sonication. After centrifugation, the proteins were initially purified using a Ni^2+-affinity HisTrap column (GE Healthcare). Impurities were washed away with lysis buffer containing 20–40 mM imidazole, and Hsp90β was subsequently eluted with lysis buffer containing 300 mM imidazole. The purification process continued with size exclusion chromatography (SEC) using a Superdex-200 (16/600) column (GE Healthcare) and a running buffer of 50 mM Tris pH 7.5 at room temperature, 300 mM KCl. The purity of the fractions was confirmed by SDS-PAGE, and they were then concentrated. For the NMR experiments, Hsp90β was dialyzed against NMR buffer (50 mM potassium phosphate pD 7.5, 100 mM KCl, 2 mM DTT (98%, D10) in D2O) and subsequently frozen in liquid nitrogen.
# (§1) The full-length Hsp90β was labeled using the Monolith His-Tag Labeling Kit RED-tris-NTA following the manufacturer's instructions (NanoTemper Technologies GmbH, Munich, Germany). The proteins were first diluted to a concentration of 8 nM in assay buffer (50 mM Tris–HCl, pH 7.4, containing 150 mM NaCl, 5% ethanol, and 10 mM MgCl2). To determine the Kd values, the proteins were mixed with the test compounds in a 1 : 1 ratio as stated in the manufacturers protocol. The final concentration of Hsp90β was 4 nM, with compounds added in the following ranges: 1000 μM to 5.86 μM for 8c; 312.5 μM to 0.15 μM for 13g and 125 μM to 3.91 μM for 1. Two independent Kd determinations were performed for compounds 8c and 13g. […] Next, Cdc37 (AR09008PUN, OriGene Technologies, Inc., Rockville, MD, USA) was acquired for the purpose of PPI inhibition evaluation between full-length Hsp90β and Cdc37. […] In all experiments the compounds were incubated with the proteins for 15 minutes in the dark at room temperature. The mixtures were then loaded into Monolith NT.115 Premium Capillaries (NanoTemper Technologies GmbH, Munich, Germany). Thermophoresis was induced at 1475 ± 15 nm and measured using a Monolith NT.115 pico instrument (NanoTemper Technologies GmbH, Munich, Germany). Measurements were conducted at ambient temperature (24–25 °C), with excitation power set to 20% and MST power set to 40%, and a laser on time of 5 seconds. To calculate the Kd values, the average fluorescence responses for each concentration were plotted against the logarithm of compound concentrate on using GraphPad Prism software (GraphPad Software, Inc., La Jolla, CA).
# [2] = target: T2, full-length Hsp90β and Cdc37 (Homo sapiens, UniProt P08238); experiment: MST PPI inhibition evaluation: Kd for Hsp90β in the presence of Cdc37; format: binding
# T2 construct: host or cells: Escherichia coli strain Rosetta (Hsp90β)
# Description: as §1
# [3] = system: Ewing sarcoma cell line SK-N-MC; experiment: MTS cell viability (antiproliferative) assay in SK-N-MC; format: cell-based; conditions: Homo sapiens, SK-N-MC, 72 hours, mean ± SD
# Description: (§2) Hormone-positive breast cancer cell line MCF-7 (ATCC-HTB-22; ATCC) was grown in Dulbecco's Modified Eagle's Medium (DMEM), while Ewing sarcoma cell line SK-N-MC (a kind gift from Beat Schäfer) and THP-1 (ATCC-TIB-202; ATCC) cells were grown in Roswell Park Memorial Institute (RPMI) 1640. The medium was supplemented with 10% heat-inactivated fetal bovine serum (Gibco, Thermo Fisher Scientific, Waltham, MA, USA), 100 U per mL penicillin, 100 μg per mL streptomycin, and 2 mM L-glutamine (all from Sigma-Aldrich, St. Louis, MO, USA). All cell lines were incubated at 37 °C in a 5% CO2 atmosphere.
# (§3) The antiproliferative activity of the compounds was evaluated against MCF-7 (ATCC-HTB-22; ATCC), SK-N-MC (a kind gift from Beat Schäfer) and THP-1 (ATCC-TIB-202; ATCC) cancer cell lines using the MTS assay (Promega, Madison, WI, USA). Cells were seeded in 96-well plates at a density of 2 × 10^4 cells per mL in 100 μL of growth medium for THP-1 and were treated with compounds and controls directly, while 3 × 10^3 cells per mL for MCF-7 and SK-N-MC were seeded in 100 μL of growth medium and allowed to adhere overnight following the treatment. In all cases the cells were treated with respective newly prepared compounds, positive controls (17-DMAG for MCF-7 and SK-N-MC; PU-H71 for THP-1) and a vehicle control (0.5% DMSO). The incubation time after treatment was 72 hours, then CellTiter96® Aqueous One Solution Reagent (Promega, Madison, WI, USA) was added to each well. Following a 3 hours incubation, absorbance was measured at 492 nm using BioTek's Synergy™ 4 Hybrid Microplate Reader (Winooski, VT, USA). The measurements were performed in two biological repetitions and each time the experiment was performed in a triplicate. The IC50 values, representing the concentration of inhibitor required for half-maximal inhibition, are the average of three independent experiments and were calculated using GraphPad Prism 9.5.0 software (San Diego, CA, USA).
# [4] = system: leukemia cell line THP-1; experiment: MTS cell viability (antiproliferative) assay in THP-1; format: cell-based; conditions: mean ± SD; for THP-1 IC50: 72 hours; for IC50: Homo sapiens, THP-1, 72 hours
# Description: as §2, §3
# T2 sequence (P08238 whole entry): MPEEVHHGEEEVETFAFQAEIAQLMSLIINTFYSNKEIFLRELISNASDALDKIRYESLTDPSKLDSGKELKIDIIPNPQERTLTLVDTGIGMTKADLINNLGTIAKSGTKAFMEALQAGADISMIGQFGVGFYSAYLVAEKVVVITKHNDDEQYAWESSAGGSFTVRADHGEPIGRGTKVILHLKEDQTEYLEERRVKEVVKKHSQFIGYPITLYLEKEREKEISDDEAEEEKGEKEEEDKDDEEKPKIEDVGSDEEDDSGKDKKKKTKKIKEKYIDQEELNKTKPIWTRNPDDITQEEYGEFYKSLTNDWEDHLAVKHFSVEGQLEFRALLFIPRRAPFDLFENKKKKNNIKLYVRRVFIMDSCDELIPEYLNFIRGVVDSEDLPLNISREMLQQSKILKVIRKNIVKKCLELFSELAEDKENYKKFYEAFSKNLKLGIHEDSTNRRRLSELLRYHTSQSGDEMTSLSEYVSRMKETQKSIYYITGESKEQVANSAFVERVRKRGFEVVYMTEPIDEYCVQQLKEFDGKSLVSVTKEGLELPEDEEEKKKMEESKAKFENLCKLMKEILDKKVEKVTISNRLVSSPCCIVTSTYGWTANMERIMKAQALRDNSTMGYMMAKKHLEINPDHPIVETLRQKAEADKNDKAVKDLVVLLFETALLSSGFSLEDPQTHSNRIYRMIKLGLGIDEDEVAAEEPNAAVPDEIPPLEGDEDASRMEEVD
# T1 sequence (P08238 whole entry): as above
Kd [1],Kd ([2]; 0.5 μM Cdc37),Kd ([2]; 1.0 μM Cdc37),Kd ([2]; 2.0 μM Cdc37),IC50 [3],THP-1 IC50 [4],IC50 [4],Kd (Hsp90β) in presence of Cdc37 ([2]; 1.0 μM Cdc37),Compound
70.8 µM,81.7 µM,90.2 µM,98.2 µM,12.8 ± 0.9 µM,retained some inhibitory activity,33.9 ± 8.5 µM,–,"CN(CCOc1ccccc1)C(=O)c1csc(Nc2cc(N3CCNCC3)ncn2)n1 [Compound 8c, N-Methyl-N-(2-phenoxyethyl)-2-((6-(piperazin-1-yl)pyrimidin-4-yl)amino)thiazole-4-carboxamide]"
73.3 µM,–,–,–,20 ± 1.5 µM,retained some inhibitory activity,41.5 ± 6.3 µM,too low for quantification,"O=C(NCCOc1ccccc1)c1ccc(Nc2cc(N3CCNCC3)ncn2)cc1 [Compound 13g, N-(2-Phenoxyethyl)-4-((6-(piperazin-1-yl)pyrimidin-4-yl)amino)benzamide]"
